Test results: patent US9642854B2, “Flavanoid compounds and process for preparation thereof” (Council of Scientific & Industrial Research, priority 2009, dated 2017)
In brackets after ≈: the same amount, converted by molar mass. Where two headings read alike, the source gives them in different places.

Legend:
Assay type in all cases: cell-based, Helicobacter pylori
[1] = tested on: H. pylori; test: Anti H. pylori screening by disc diffusion susceptibility assay; settings: for Inhibition zone diameter (score): 100 and 200 mg/disc (so in the source); for Inhibition Zone Diameter (mm): spacer molecules
Method: The discs were impregnated with […] of each of the compounds, dissolved either in ethanol or DMSO, and the zone of inhibition was measured after 72 h of growth under microaerophilic conditions at 37° C. Inhibition zone diameter ranging 10-20 mm was given a score of ^+, 20-30 mm as ^++ and that of >30 mm as ^+++, as obtained employing dose range of […]/disc. The detailed structural information of the molecules is provided under ‘Description of the Compounds’.
Methods and protocols for the determination of inhibition zone diameter are as stated under Experiment 1, and that of MIC values by microbroth dilution assay as in Experiment 3. ‘Nil’ means zone of inhibition below 10 mm.
The anti H. pylori activity of all 16 flavonoid molecules, 2 naturally isolated and 14 synthetic derivatives, was screened by disc diffusion sensitivity assay employing 2 clinical strains HP001 and HP002, and three standard strains ATCC® 700392, 43504 and 49503. A 0.5 mL inoculum (10^8 CFU/mL) for each bacterial strain tested was flooded on freshly prepared Brain Heart Infusion (BHI) agar plates supplemented with 7% FCS, 0.5% IsoVitalex and 0.0025% DENT® and the discs (5 mm diameter) containing different compounds or antibiotics (dissolved either in ethanol or DMSO) were placed on the agar surface. After incubation for 3 days in a microaerophilic atmosphere at 37° C., the diameter of the zone of inhibition was measured (Glupczynsky, 1996; McNulty et al., 2002).

[2] = tested on: H. pylori; test: Acid stability study (pH ~2.0, 2 h, then MIC/MBC by microbroth dilution); settings: Helicobacter pylori
Method: Details of experimental protocol are described under Experiment 7. MIC/MBC values were determined by microbroth dilution assay.
A 100 μL stock of CPP-1, NMC-1, NMC-2 and CPP-3 (1-2 mg/mL) was treated with 20-30 μL of 0.12 NHCl to bring the pH of the solution to ^˜2.0, and kept at 25° C. for 2 h (Funatogawa et al., 2004). Such acid-treated samples were then serially diluted (2 fold) with medium in 96-well microtitre plates to determine the MIC and the MBC values by microbroth dilution assay as detailed under Experiment 3.

[3] = tested on: H. pylori; test: Time kill kinetic analyses in biphasic culture; settings: for killing at MIC dose (1×MIC): up to 36 h
[4] = tested on: H. pylori; test: MIC and MBC by microbroth dilution assay; settings: Helicobacter pylori
Method: The compounds, serially diluted ([…]) in Muller Hinton broth containing 5% FCS, were incubated in 96-well microtitre plate containing fresh cultures of HP001 (˜5.5×10^6 CFU/mL) or ATCC® 43504 (2.65×10^6 CFU/ml) in a final volume of […]. After 72-h of incubation under microaerophilic condition at 37° C., […] of cultures wherein no growth had been detected were streaked on fresh brain heart infusion agar plates for MBC determination.
In microbroth dilution assay employing one clinical and one standard strain, both the bacteriostatic and the bactericidal values were determined for all four compounds as well as for clarithromycin (Table 4). Two-fold serial dilutions were prepared in 96-well microtitre plate containing a total volume of 0.1 mL Mueller Hinton broth supplemented with 5% FCS. A 3-day old liquid culture was diluted 10 times in Mueller Hinton broth and 0.1 mL of these cultures was inoculated into each well to give a final concentration of ˜10^6 CFU/mL. The plates were incubated for 3 days in a microaerophilic atmosphere at 37° C. Following incubation, the plates were examined visually, and the lowest concentration showing complete inhibition of growth was recorded as the MIC of the respective compound (Hachem et al., 1996). Aliquots (0.1 mL) of 72-h culture in which no growth had been detected were taken from the wells of the above microtitre plates and used to streak on fresh BHI agar plates.

[5] = tested on: H. pylori; test: Anti H. pylori spectrum (MIC) by agar dilution method; settings: Helicobacter pylori; for MIC50: MIC against 50% of the strains of the panel, read-out: MIC50
Method: MIC was determined using agar dilution assay following the CLSI® guidelines. Six clinical isolates and four standard strains were used for this study. Five microlitre of freshly grown 3-day old culture (˜1×10^8 CFU/mL) was streaked in plates containing 2-fold serial dilution of the compounds ranging […], and incubated under microaerophilic condition at 37° C. After 72 h, the plates were inspected visually for absence of growth to assess the MIC values. The experiment was performed in duplicates. MIC50 is defined as the dose (μg/ml) required for killing 50% of the strains.
Plates contained two-fold serial dilutions of the compounds ranging from […]. Five microlitres of 3-day old freshly grown H. pylori culture (^˜10^8 CFU/mL) was inoculated onto drug-containing BHI agar plates supplemented with 7% FCS, 0.5% IsoVitalex and 0.0025% DENT®, which were then incubated for 3 days under microaerophilic condition at 37° C.

[6] = ATCC standard strain 43504, 72 h
[7] = ATCC standard strain 49503, 72 h
[8] = ATCC standard strain 700392, 72 h
[9] = 2 h, pH ~2.0, 2 h, 25° C., 43504, read-out: MBC, Acid treated
[10] = 2 h, pH ~2.0, 2 h, 25° C., 43504, read-out: MIC, Acid treated
[11] = 2 h, pH ~2.0, 2 h, 25° C., HP001, read-out: MBC, Acid treated
[12] = 2 h, pH ~2.0, 2 h, 25° C., HP001, read-out: MIC, Acid treated
[13] = not acid treated, 43504, read-out: MBC, Control
[14] = not acid treated, 43504, read-out: MIC, Control
[15] = not acid treated, HP001, read-out: MBC, Control
[16] = not acid treated, HP001, read-out: MIC, Control
[17] = ATCC43504, microbroth dilution, ATCC 43504
[18] = 72 h, panel of 6 clinical isolates and 4 standard strains, read-out: MIC Range
[19] = clinical strain HP001, read-out: MIC
[20] = clinical strain HP002, read-out: MIC
[21] = clinical strain HP003, read-out: MIC
[22] = clinical strain HP004, read-out: MIC
[23] = clinical strain HP005, read-out: MIC
[24] = clinical strain HP006, read-out: MIC
[25] = standard strain 43504, read-out: MIC
[26] = standard strain 43629, read-out: MIC
[27] = standard strain 49503, read-out: MIC
[28] = standard strain 700392, read-out: MIC

Structure (SMILES)	MBC [4, 17] [µg/mL]	MIC [4, 17] [µg/mL]	MBC ([4]; microbroth dilution, HP001) [µg/mL]	MIC ([4]; microbroth dilution, HP001) [µg/mL]	MIC [5, 18] [µg/mL]	MIC50 [5] [µg/mL]	MIC [5, 19] [µg/mL]	MIC [5, 20] [µg/mL]	MIC [5, 21] [µg/mL]	MIC [5, 22] [µg/mL]	MIC [5, 23] [µg/mL]	MIC [5, 24] [µg/mL]	MIC [5, 25] [µg/mL]	MIC [5, 26] [µg/mL]	MIC [5, 27] [µg/mL]	MIC [5, 28] [µg/mL]	Inhibition Zone Diameter (mm) ([1]; ATCC 43504)	Inhibition Zone Diameter (mm) ([1]; HP001)	further results
O=c1cc(-c2ccccc2)oc2cc(OCCCCN3CCCCC3)cc(O)c12 [CPP-3, 5-Hydroxy-2-phenyl-7-(4-piperidin-1-yl-butoxy)-chromen-4-one]	25 (≈ 63.5 µM)	12.5 (≈ 31.8 µM)	25 (≈ 63.5 µM)	12.5 (≈ 31.8 µM)	6.25 to 100 (≈ 15.9 to 254 µM)	12.5 (≈ 31.8 µM)	25 (≈ 63.5 µM)	25 (≈ 63.5 µM)	< 12.5	< 12.5	< 12.5	< 12.5	12.5 (≈ 31.8 µM)	100 (≈ 254 µM)	25 (≈ 63.5 µM)	25 (≈ 63.5 µM)	–	–	Inhibition zone diameter (score) [1, 6]: ++ (20-30 mm as ^++); Inhibition zone diameter (score) [1, 7]: ++ (20-30 mm as ^++); Inhibition zone diameter (score) [1, 8]: ++ (20-30 mm as ^++); zone of inhibition at 100 µg/disc ([1]; Helicobacter pylori, 72 h, 100 and 200 μg/disc, majority of the strains, read-out: Activity class by inhibition zone diameter): > 30 mm; Inhibition zone diameter (score) ([1]; clinical strain HP001, 72 h): ++ (20-30 mm as ^++); Inhibition zone diameter (score) ([1]; clinical strain HP002, 72 h): +++ (that of >30 mm as ^+++); MBC [2, 9]: < 50000 µg/mL; MIC [2, 10]: 50000 µg/mL (≈ 127000 µM); MBC [2, 11]: 50000 µg/mL (≈ 127000 µM); MIC [2, 12]: 25000 µg/mL (≈ 63500 µM); MBC [2, 13]: 25000 µg/mL (≈ 63500 µM); MIC [2, 14]: 12500 µg/mL (≈ 31800 µM); MBC [2, 15]: 25000 µg/mL (≈ 63500 µM); MIC [2, 16]: 12500 µg/mL (≈ 31800 µM); time to kill the bacteria totally ([3]; ATCC 43504, 50 μg/mL): about 12 h; time to complete killing ([3]; ATCC 43504, 2×MIC (clarithromycin 0.08, CPP-1 and NMC-1 12.5, NMC-2 and CPP-3 25 μg/mL)): about 12 h; killing at MIC dose ([3]; ATCC 43504, MIC ([…])): no killing potency; killing at MIC dose (1×MIC) ([3]; HP001): could not exert any effect on bactericidal activity; MIC50 ([5]; 72 h): ~12.5 µg/mL (≈ 31.8 µM)
CC[C@H]1OC(=O)[C@H](C)[C@@H](O[C@H]2C[C@@](C)(OC)[C@@H](O)[C@H](C)O2)[C@H](C)[C@@H](O[C@@H]2O[C@H](C)C[C@H](N(C)C)[C@H]2O)[C@](C)(OC)C[C@@H](C)C(=O)[C@H](C)[C@@H](O)[C@]1(C)O [Clarithromycin, reference compound]	0.08 (≈ 0.107 µM)	0.04 (≈ 0.0535 µM)	0.04 (≈ 0.0535 µM)	0.01 (≈ 0.0134 µM)	0.016 to 0.1 (≈ 0.0214 to 0.134 µM)	0.032 (≈ 0.0428 µM)	0.016 (≈ 0.0214 µM)	0.032 (≈ 0.0428 µM)	< 0.02	0.04 (≈ 0.0535 µM)	0.08 (≈ 0.107 µM)	0.08 (≈ 0.107 µM)	0.032 (≈ 0.0428 µM)	0.1 (≈ 0.134 µM)	0.016 (≈ 0.0214 µM)	0.064 (≈ 0.0856 µM)	–	–	inhibition zone ([1]; strain 43504, 0.04 mg/disc): 20 mm; inhibition zone ([1]; strain 49503, 0.005 mg/disc): 15 mm; inhibition zone ([1]; strain 700392, 0.4 mg/disc): 28 mm; inhibition zone ([1]; strains HP001 and HP002, 0.01 mg/disc): 18 mm; decrease in cell count ([3]; HP001, at around 9 h): 1 log; time at which killing/inhibition became evident ([3]; HP001, biphasic culture): around 9 h
CN1CCN(CCCCCCOc2cc(O)c3c(=O)cc(-c4ccccc4)oc3c2)CC1 [NMC-1, 5-Hydroxy-7-[6-(4-methyl-piperazin-1-yl)-hexyloxy]-2-phenyl-chromen-4-one]	25 (≈ 57.3 µM)	6.25 (≈ 14.3 µM)	12.5 (≈ 28.6 µM)	6.25 (≈ 14.3 µM)	6.25 to 12.5 (≈ 14.3 to 28.6 µM)	6.25 (≈ 14.3 µM)	12.5 (≈ 28.6 µM)	6.25 (≈ 14.3 µM)	< 6.25	< 6.25	< 6.25	< 6.25	< 12.5	12.5 (≈ 28.6 µM)	6.25 (≈ 14.3 µM)	12.5 (≈ 28.6 µM)	–	–	Inhibition zone diameter (score) [1, 6]: + (Inhibition zone diameter ranging 10-20 mm was given a score of ^+); Inhibition zone diameter (score) [1, 7]: + (Inhibition zone diameter ranging 10-20 mm was given a score of ^+); Inhibition zone diameter (score) [1, 8]: + (Inhibition zone diameter ranging 10-20 mm was given a score of ^+); Inhibition zone diameter (score) ([1]; clinical strain HP001, 72 h): + (Inhibition zone diameter ranging 10-20 mm was given a score of ^+); Inhibition zone diameter (score) ([1]; clinical strain HP002, 72 h): ++ (20-30 mm as ^++); MBC [2, 9]: < 25000 µg/mL; MIC [2, 10]: 25000 µg/mL (≈ 57300 µM); MBC [2, 11]: 25000 µg/mL (≈ 57300 µM); MIC [2, 12]: 12500 µg/mL (≈ 28600 µM); MBC [2, 13]: 25000 µg/mL (≈ 57300 µM); MIC [2, 14]: 6250 µg/mL (≈ 14300 µM); MBC [2, 15]: 12500 µg/mL (≈ 28600 µM); MIC [2, 16]: 6250 µg/mL (≈ 14300 µM); decrease in cell count within 36 h ([3]; ATCC 43504, at MIC value (6.25 μg/mL)): 1 log; killing at MIC dose (1×MIC) ([3]; HP001): could not however exert complete killing even at 36 h; MIC50 ([5]; 72 h): ~6.25 µg/mL (≈ 14.3 µM)
CCCOc1ccc2c(=O)cc(-c3ccccc3)oc2c1 [reference compound]	–	> 400	–	> 400	–	–	–	–	–	–	–	–	–	–	–	–	Nil (‘Nil’ means zone of inhibition below 10 mm.)	Nil (‘Nil’ means zone of inhibition below 10 mm.)	–
CCCN1CCOCC1 [reference compound]	–	> 400	–	> 400	–	–	–	–	–	–	–	–	–	–	–	–	Nil (‘Nil’ means zone of inhibition below 10 mm.)	Nil (‘Nil’ means zone of inhibition below 10 mm.)	–
COCCCN1CCOCC1 [reference compound]	–	> 400	–	> 400	–	–	–	–	–	–	–	–	–	–	–	–	Nil (‘Nil’ means zone of inhibition below 10 mm.)	Nil (‘Nil’ means zone of inhibition below 10 mm.)	–
CCCN1CCN(C)CC1 [reference compound]	–	> 400	–	> 400	–	–	–	–	–	–	–	–	–	–	–	–	Nil (‘Nil’ means zone of inhibition below 10 mm.)	Nil (‘Nil’ means zone of inhibition below 10 mm.)	–
CCCN1CCCCC1 [reference compound]	–	> 400	–	> 400	–	–	–	–	–	–	–	–	–	–	–	–	Nil (‘Nil’ means zone of inhibition below 10 mm.)	Nil (‘Nil’ means zone of inhibition below 10 mm.)	–
